The subject of one data set is HuH-7 and SNU-398 cells. Kind of data set: In vivo tumorigenicity of shRNA-transduced HCC cells in NOD/SCID mice. On the procedure:
4- to 8-week-old NOD/SIC mice were used. Animal work was done at the Childrens Hospital Boston (CHB) with approval from IACUC. 10×10^6 SNU-398 or 6×10^6 HuH-7 cells infected with viruses expressing scrambled shRNA or E5 shRNA specific for SALL4 (total 300 μL of cell suspension and matrigel in 1:1 ratio) were injected subcutaneously (s.c.) into NOD/SCID mice on the right flank. After injection, mice were examined and tumor volumes were measured at various time points. Tumor volume=π/6×larger diameter×(smaller diameter)^2. Tumor samples were processed for routine histology examination.
A decrease in tumorigenicity in SALL4-knockdown HCC cells was anticipated and an in vivo transplantation assay was carried out to confirm this hypothesis. HuH-7, another HCC cell line with considerably high endogenous SALL4 expression, and SNU-398 cells were transduced with lentivirus expressing either E5 shRNA or control scrambled shRNA and transplanted subcutaneously into right flank of NOD/SCID mice.
To examine if SALL4 has a role in maintaining tumorigenicity of HCC cells, in vivo xenotransplantation assays were carried out. HuH-7 and SNU-398 cells were transduced with lentviruses expressing either shSALL4 1 or Scr shRNA 1 and transplanted subcutaneously into the flanks of NOD/SCID mice.

The next data set concerns PTEN/AKT pathway. Put plainly: PTEN/AKT pathway expression in SNU-387 cells after treatment (Western blot). Format: cell-based, human. Conditions: SNU-387, Western blot. From the text: The induction of Pten expression was not affected when wt peptide was administrated together with a Pten inhibitor. AKT, a molecule with levels of phosphorylation controlled by the expression of Pten was affected by the wt peptide addition accordingly. […] The effect of wt peptide on pAKT was abrogated by the Pten inhibitor. […] In contrast, the protein expression level of endogenous Pten was very high in the none-SALL4 expressing SNU387 cells.
To confirm the involvement of PTEN tumor suppressor in SALL4 peptide-induced reduction of number of viable HCC cells, PTEN expression was analyzed by western blot upon drug treatment. […] Whether the increase in PTEN expression upon SALL4 peptide treatment has an effect in PI3K signalling by dephosphorylating AKT was examined.
To confirm the involvement of the PTEN tumor suppressor in the SALL4 peptide-induced reduction of HCC cell viability, PTEN expression was analyzed by western blot upon drug treatment. […] If the increase in PTEN expression has an effect in PI3K signaling was next examined. PTEN functions as a phosphatase to dephosphorylate AKT.

The next data set has as its system SNU-398. Kind of data set: Cellular uptake of FITC-labeled peptide. Format: cell-based, human. On the procedure:
(§1) Cells were grown typically in 6 well plates (35 mm dish) to 50-70% confluence. Usually the transfect ion efficiency is somehow cell type specific. 2 mM peptide was diluted 4 times in PBS (2 ul+6 ul) (For FITC peptidedo not dilute the 2 mM stock). For each transfection reaction tube with 100 ul PBS+1 ul diluted peptide was set up. Chariot reagent was diluted 1:10 in ddH2O and for each transfection a 94 ul H2O tube+6 ul diluted Chariot was prepared (No master mix for more than 4 transfections). The 2 tubes were carefully mixed by pipetting up and down and incubated 30 min. at room temperature. Medium was aspirated from the dish (well) and cells were overlay with the mix. 400 ul serum free medium was added and cells were incubated further for 1 h 37 C (cell incubator). 500 ul complete medium (with 10% serum) was finally added. If cells are not very sensitive to serum starvation (cancer cell lines) 5% serum could be used.
(§2) Fluorescent and Confocal microscopy was performed on cells treated with FITC labeled peptides with or without of transfection reagent depending on the cell type. Cells were mounted on cover slips using mounting media with DAPI (Invitrogen) and in some cases cytoskeleton dye (Invitrogen).
(§3) In order to evaluate their cellular uptake and localization, the N terminus of these peptides was labeled with fluorescein isothiocyanate (FITC). Despite the net positive charge of these peptides, their uptake by the cells is cell-type specific. Some cell lines such as HL-60 (an AML cell line) allowed the peptide to enter the cells without any modification or carrier, and some cell lines were not penetrable at all. In order to achieve a similar level of peptide delivery in most cell types, a Chariot Transfection Reagent (Active Motif) was used as a peptide carrier, as directed from the manufacturer. All cell types used in the study described herein were subjected to individual evaluation of the percentage of the cells in which the peptide was delivered as well as the duration of time during which they sustained the labeled peptide in the cells. After Chariot treatment, confocal microscopy studies confirmed uptake of these peptides throughout the cell, including nuclei (as evidenced by DAPI overlay, FIG. 1B).
Next tested was the cellular uptake and localization of these peptides in various types of cells using FITC-labeled wild type or scrambled peptides. Despite the net positive charge of these peptides, their penetration into cells is cell type-specific. Some cell lines, such as HL-60 (an AML cell line), allowed peptide entry without any modification or facilitator, while others such as SNU-398 were not penetrable at all. […] The overall success rate of peptide uptake by the cells was above 95% with Pep-1, as evaluated by flow cytometry (FIG. 9A). […]

The test system of the next data set is AML. Kind of data set: Cellular uptake of FITC-labeled peptide. Format: cell-based, human. As for the experimental part: as §1, §2, §3
Another data set has as its system HL60. Kind of data set: Cellular uptake of FITC-labeled peptide. The data set is classed as cell-based, human. As for the experimental part: as §1, §2, §3
The next data set relates to SNU387. Put plainly: Cellular uptake of FITC-labeled peptide. The data set is classed as cell-based, human. As for the experimental part: as §1, §2, §3
Another data set concerns HuH-7. Put plainly: Cellular uptake of FITC-labeled peptide. Format: cell-based, human. As for the experimental part: as §1, §2, §3

“Also recorded” adds a separate entry of the source.

Consider “CTATTTAGCCAAAGGCAAA (short hairpin RNA, chemistry and delivery not given here, further chemistry not given here) [E5 shRNA]”, for which the “mice with tumor formation” value in the data set with HuH-7 and SNU-398 cells (HuH-7, subcutaneous, n=3) was “one out of the three”. The “ability of cells to propagate tumors” value in the data set with HuH-7 and SNU-398 cells (HuH-7 and SNU-398) is “greatly reduced the ability of these cells to propagate tumors”. Moreover, the survival of mice result in the data set with HuH-7 and SNU-398 cells (HuH-7 and SNU-398, Kaplan-Meier) is “significant survival advantage”.
Turning to “H-MSRRKQAKPQHI-OH [wt peptide, MSRRKQAKPQHI]”, the PTEN protein expression result was “did not seem to change the expression of Pten significantly” with PTEN/AKT pathway and “slight increase in PTEN expression; also recorded: negligible effect on PTEN expression” with PTEN/AKT pathway (listed as SALL4 peptide). Further, the “phosphorylated AKT (pAKT) level” value in the data set on PTEN/AKT pathway is “little or no effect”. Besides, the “peptide uptake (cells with peptide)” value in the data set with SNU-398 (SNU-398, no carrier) is on record as 0%; in the data set with SNU-398 (SNU-398, with Chariot), 40%; in the data set with AML (no carrier), 0%; in the data set with AML (with Chariot) it was 50%; in the data set on HL60 (HL60, no carrier), roughly 50%; with HL60 (HL60, with Chariot), 70%. Besides, the “peptide uptake (cells with peptide)” value with SNU387 (SNU387, no carrier) turned out to be 0%; with SNU387 (SNU387, with Chariot), 40%; in the data set with HuH-7 (HuH-7, no carrier) it was 0%; in the data set with HuH-7 (HuH-7, with Chariot), 60%. Also, the “cells showing FITC-labeled peptide uptake” value with SNU-398 (SNU-398, with Pep-1 carrier, flow cytometry) is given as “Over 90%”.

Source of the values: US9365851B2, “Spalt-like transcription factor 4 (SALL4) and uses thereof” (National University of Singapore, priority 2011, dated 2016).
